In patent US9035057B2, “Dihydroethidine analogues and uses thereof” (Washington University, priority 2009, dated 2015):

Columns and labels:
[1] = Exposure to H202 alone, fluorescence; assay type: biochemical
Description: (§1) This example illustrates a comparison of compounds for selective reactivity with superoxide radical. In these experiments, compounds WC-63, WC-77 and WC-81 were exposed to superoxide generated by xanthine oxidase/hypoxanthine in the absence or presence SOD, and were evaluated similarly as compound C1 in Example 10. The concentration of DHE for all experiments was double that of compounds WC-63, WC-77 and WC-81. […] All of the compounds were also exposed to H202 in the presence of horseradish peroxidase (HRP) to generate hydroxyl radical.

[2] = Tissue uptake of the tracers, fluorescence lifetime imaging; assay type: in vivo, mice; settings: FIG. 8
Excerpt: This example illustrates tissue uptake of the tracers. In these experiments, tracer lifetimes in mice were studied by fluorescence imaging of DHE and compounds WC-63, WC-77 and WC-81.

[3] = Selective reactivity with superoxide generated by xanthine oxidase/hypoxanthine, absence or presence of SOD; assay type: biochemical; settings: for specificity for superoxide: FIG. 3, change in fluorescent units from baseline; for oxidation by superoxide / effect of SOD on oxidation by superoxide: xanthine oxidase/hypoxanthine; for oxidation by superoxide: absence of SOD, DHE concentration double that of the WC compounds; for effect of SOD on oxidation by superoxide: presence of SOD; for specificity for superoxide, comparison among compounds: levels of hydroxyl radical very supraphysiological
Description: as §1

[4] = Exposure to H202 in the presence of horseradish peroxidase (HRP), fluorescence; assay type: biochemical; settings: H202 with HRP, supraphysiologic levels
Description: as §1

[5] = In vivo oxidation in brains of ketamine-pretreated mice, confocal microscopy; settings: for detection of superoxide produced by ketamine treatment (fluorescence of oxidized form in mouse brain): ketamine pretreatment
Description: In these experiments, mice were pretreated for several days with subanesthetic doses of ketamine, which produces a large increase in neuronal superoxide generation (Behrens et al, 2007). The mice were injected with 27 mg/kg of compound C1 and sacrificed 16 hours later. Brains were sliced and imaged by confocal microscopy. The images of the brains sliced 16 hours after administration of compound C1 are depicted in FIG. 4. […] The quantitative measures of fluorescence of the oxidized forms of DHE and compound C1 in mouse brain are depicted in FIG. 5. When compound C1 was administered to transgenic mice overexpressing SOD, the increased fluorescence from the ketamine pretreatment was abolished, consistent with the SOD removal of superoxide (FIG. 5).

[6] = Fluorescence from oxidation of compound WC-81 in mouse brain images; assay type: in vivo, mice; settings: FIG. 7
Description: This example illustrates fluorescence from oxidation of Compound WC-81. In these experiments, compound WC-81 was administered to mice, and images of mouse brains were then obtained (FIG. 7).

[7] = Kinetics of compound WC-81 in brain in vivo, eXplore Optix-MX2 fluorescence scanner; set-up: species or system mouse
Description: In these experiments, an anesthetized mouse was placed in an eXplore Optix™-MX2 scanner, and an initial scan was completed for background fluorescence (T=0). A single intraperitoneal injection of 50 mg/kg of compound WC-81 in 50% DMSO, 50% saline was performed, and the animal was rescanned at 10 minutes. It took approximately 5 minutes to complete the scan. The mouse was removed, allowed to recover, then re-anesthetized and rescanned at 1 hour. A similar recovery and rescan was performed at 2 hours. The mouse was pretreated with subanesthetic doses of ketamine to raise superoxide levels. Cortical (left and right) and cerebellar activity are depicted in FIG. 6.

[8] = Plate reader oxidation of compound C1 with peroxide; assay type: biochemical; settings: H202 1 mM
Description: (§2) This example illustrates oxidation rates of Compound C1 under various conditions. In these experiments, fluorescence intensity of Compound C1 was evaluated in a plate reader assay, and the fluorescence intensity over time of the oxidation rate of compound C1 was evaluated. […] Excitation was done at 480 nm and emission filtering was >590 nm. The following reaction conditions were used: [table]

[9] = Plate reader oxidation of compound C1 with H202 and horseradish peroxidase; assay type: biochemical; settings: H202 1 mM, HRP 0.2 U/ml
Description: as §2

[10] = Plate reader oxidation rate of compound C1, superoxide production with hypoxanthine and xanthine oxidase (XO system); assay type: biochemical
Description: as §2

[11] = Comparative oxidation of C1 and DHE in the presence of oxidizers, single wavelength fluorescence platereader study; assay type: biochemical; settings: elevations with superoxide but not with peroxide (H202), hydroxyl radical (HO—) or peroxynitrate (ONOO—); FIG. 2
Description: This example illustrates comparative oxidation of C1 and DHE. In these experiments, fluorescence of C1 or DHE were determined in the presence of oxidizers. […] In this single wavelength fluorescence platereader study, it should be noted that the ratio of fluorescence increase in a study cannot be compared between DHE and compound C1 since their non-oxidized forms have fluorescence and the light spectra overlap to a variable degree with the oxidized forms.

Row | Structure (SMILES) | oxidation with H202 [1] | tissue presence of tracer [2] | specificity for superoxide [3] | oxidation by superoxide [3] | effect of SOD on oxidation by superoxide [3] | oxidation in the presence of hydroxyl radical [4] | detection of superoxide produced by ketamine treatment (fluorescence of oxidized form in mouse brain) ([5]; FIG. 5) | specificity for superoxide, comparison among compounds [3] | also measured
1 | COc1ccc(C2c3cc(N)ccc3-c3ccc(N)cc3N2C)cc1 (stereo not drawn) [WC-63] | generally no evidence of oxidation | present in the brain and organs in the chest | high specificity for superoxide | oxidized by superoxide | fully blocked oxidation | generally no evidence of oxidation | – | – | –
2 | CCN1c2cc(N)ccc2-c2ccc(N)cc2C1c1ccccc1 (stereo not drawn) [DHE, 2,7-diamino-10-ethyl-9-phenyl-9,10-dihydrophenanthradine, reference compound] | – | present in the brain and organs in the chest | – | oxidized by superoxide | fully blocked oxidation | – | detected a large increase | – | –
3 | CN1c2cc(N)ccc2-c2ccc(N)cc2C1c1ccc(OCCF)cc1 (stereo not drawn) [WC-81] | generally no evidence of oxidation | present in the brain and organs in the chest | high specificity for superoxide | oxidized by superoxide | fully blocked oxidation | partial oxidation | – | highly selective for superoxide | localization of fluorescence from oxidation in brain [6]: localized to cerebral microvessels and to the extracellular space around certain cortical or hippocampal neurons; stability of the product, comparison among compounds [3]: most stable and intact product; brain fluorescence levels at 120 minutes ([7]; 50 mg/kg intraperitoneal, 120 minutes): fall in levels; time by which plateau of brain fluorescence was reached ([7]; 50 mg/kg intraperitoneal, cortical and cerebellar activity): ≤ 60 min; brain penetration ([7]; single intraperitoneal injection 50 mg/kg in 50% DMSO, 50% saline, ketamine pretreated mouse, FIG. 6): penetrated the brain
4 | CN1c2cc(N)ccc2-c2ccc(N)cc2C1c1ccccc1 (stereo not drawn) [C1] | – | – | – | – | – | – | detected a large increase | – | pattern of brain fluorescence ([5]; ketamine pretreated mice, 27 mg/kg, sacrificed 16 hours later, FIG. 4): consistent with the presence of intracellular oxidized compound C1; increased fluorescence from ketamine pretreatment in transgenic mice overexpressing SOD ([5]; transgenic mice overexpressing SOD, FIG. 5): abolished; oxidation with peroxide [8]: no oxidation; oxidation with H202 with horseradish peroxidase [9]: no oxidation; effect of superoxide dismutase (SOD) on oxidation ([10]; XO system plus SOD 575 U/ml): completely removed; effect of catalase on oxidation ([10]; XO system plus catalase 60 U/ml): did not effect; rate of conversion by oxidation compared with DHE ([10]; data not shown): slightly faster than DHE; oxidation under superoxide production ([10]; hypoxanthine and xanthine oxidase (XO system)): oxidized rapidly; reactivity and selectivity for superoxide (fluorescence intensity over time) ([10]; plate reader, excitation 480 nm, emission >590 nm, FIG. 1): both reactivity and selectivity for superoxide; selective oxidation (fluorescence) in the presence of oxidizers [11]: selective oxidation similar to DHE
5 | CN1c2cc(N)ccc2-c2ccc(N)cc2C1c1ccc(OCc2cn(CCF)nn2)cc1 (stereo not drawn) [WC-77] | generally no evidence of oxidation | – | high specificity for superoxide | oxidized by superoxide | fully blocked oxidation | generally no evidence of oxidation | – | most specific compound for superoxide | –
